Experiments:
T-47D = assay: Caspase activation assay in T-47D cells; format: cell-based; details: Homo sapiens; T47D cells, 24 h incubation; read-out: Caspase activation potency EC50 T47D
Procedure: (§1) Human breast cancer cell lines T-47D and ZR-75-1, human colon cancer cell line DLD-1 and human non-small cell lung cancer cell line H1299 were grown according to media component mixtures designated by American Type Culture Collection+10% FCS (Invitrogen Corporation), in a 5% CO2−95% humidity incubator at 37° C. T-47D and ZR-75-1 cells were maintained at a cell density between 30 and 80% confluency at a cell density of 0.1 to 0.6×10^6 cells/mL. Cells were harvested at 600×g and resuspended at 0.65×10^6 cells/mL into appropriate media+10% FCS. An aliquot of […] of cells was added to a well of a 96-well microtiter plate containing 5 μl of a 10% DMSO in RPMI-1640 media solution containing about 0.16 to 10 μM of 2,7,8-triamino-4-(3-bromo-4,5-dimethoxy-phenyl)-3-cyano-4H-chromene (1) or other test compounds (0.016 to 1 μM final). An aliquot of 45 μl of cells was added to a well of a 96-well microtiter plate containing 5 μl of a 10% DMSO in RPMI-1640 media solution without test compound as the control sample. The samples were mixed by agitation and then incubated at 37° C. for 24 h in a 5% CO2−95% humidity incubator. After incubation, the samples were removed from the incubator and 50 μl of a solution containing 20 μM of N-(Ac-DEVD)-N′-ethoxycarbonyl-R110 (SEQ ID No:1) fluorogenic substrate (Cytovia, Inc.; U.S. Pat. No. 6,335,429), 20% sucrose (Sigma), 20 mM DTT (Sigma), 200 mM NaCl (Sigma), 40 mM Na PIPES buffer pH 7.2 (Sigma), and 500 μg/ml lysolecithin (Calbiochem) was added. The samples were mixed by agitation and incubated at room temperature. Using a fluorescent plate reader (Model 1420 Wallac Instruments), an initial reading (T=0) was made about 1-2 min after addition of the substrate solution, employing excitation at 485 nm and emission at 530 nm, to determine the background fluorescence of the control sample. After the 3 h incubation, the samples were read for fluorescence as above (T=3 h).
(§2) The Relative Fluorescence Unit values (RFU) were used to calculate the sample readings as follows: RFU(T=3h)−Control RFU(T=0)=Net RFU(T=3h)
(§3) The activity of caspase cascade activation was determined by the ratio of the net RFU value for 2,7,8-triamino-4-(3-bromo-4,5-dimethoxy-phenyl)-3-cyano-4H-chromene or other test compound to that of control samples. The EC50 (nM) was determined by a sigmoidal dose-response calculation (Prism 2.0, GraphPad Software Inc.).

H1299 = assay: Caspase activation assay in H1299 cells; format: cell-based; details: Homo sapiens, NCI-H1299, 24 h incubation, read-out: Caspase activation potency EC50 H1299
Procedure: as §1, §2, §3

[1] = tested on: MX1 human breast cancer tumors; assay: In vivo antitumor activity in MX-1 model, combination with cisplatin and doxorubicin; set-up: species or system mice
Procedure: MX1 human breast cancer tumors were obtained from the NCI-FCRDC and maintained as tumors in nude mice. Tumor bits were implanted with a trocar into the right mammary area of female nu/nu mice and allowed to grow to an average size of 200-250 mg, about 12 days after being implanted. Animals were randomized and assigned to study groups of 8-10 animals/group. Body weight were determined and tumor size were measured by calipers and converted to volume by the standard formula of Vol=L×W^2/2. Compound 1R was formulated in 7% PEG400/9% Tween80/84% D5W and administered IV via the tail vein at the indicated days and doses. Day 1 of the study was the first day of treatment. Survival time was the number of days for the tumor to reach 1000 mg or death, whichever occurred earliest. Median survival is the median for the group.
Mice implanted with MX1 human breast cancer tumors were treated with compound 1R as described in EXAMPLE 11. Cisplatin was administered IP whereas doxorubicin was administered IV at the indicated doses.

ZR-75-1 = assay: Caspase activation assay in ZR-75-1 cells; format: cell-based; details: Homo sapiens, ZR751 cells, 24 h incubation, read-out: Caspase activation potency EC50 ZR751
Procedure: as §1, with “After incubation, the samples were removed from the incubator and 50 μl of a solution containing 20 μM of N-(Ac-DEVD)-N′-ethoxycarbonyl-R110 (SEQ ID No:1) fluorogenic substrate (Cytovia, Inc.; U.S. Pat. No. 6,335,429), 20% sucrose (Sigma), 20 mM DTT (Sigma), 200 mM NaCl (Sigma), 40 mM Na PIPES buffer pH 7.2 (Sigma), and 500 μg/ml lysolecithin (Calbiochem) was added. The samples were mixed by agitation and incubated at room temperature.” left out
as §2, §3

DLD-1 = assay: Caspase activation assay in DLD-1 cells; format: cell-based; details: Homo sapiens, 24 h incubation, read-out: Caspase activation potency EC50 DLD-1
Procedure: as §1, with “After incubation, the samples were removed from the incubator and 50 μl of a solution containing 20 μM of N-(Ac-DEVD)-N′-ethoxycarbonyl-R110 (SEQ ID No:1) fluorogenic substrate (Cytovia, Inc.; U.S. Pat. No. 6,335,429), 20% sucrose (Sigma), 20 mM DTT (Sigma), 200 mM NaCl (Sigma), 40 mM Na PIPES buffer pH 7.2 (Sigma), and 500 μg/ml lysolecithin (Calbiochem) was added. The samples were mixed by agitation and incubated at room temperature.” left out
as §2, §3

solid tumor cells = assay: Caspase cascade activation and induction of apoptosis, overall statement; format: cell-based, human; details: summary of Table I
Procedure: as §1, with “After incubation, the samples were removed from the incubator and 50 μl of a solution containing 20 μM of N-(Ac-DEVD)-N′-ethoxycarbonyl-R110 (SEQ ID No:1) fluorogenic substrate (Cytovia, Inc.; U.S. Pat. No. 6,335,429), 20% sucrose (Sigma), 20 mM DTT (Sigma), 200 mM NaCl (Sigma), 40 mM Na PIPES buffer pH 7.2 (Sigma), and 500 μg/ml lysolecithin (Calbiochem) was added. The samples were mixed by agitation and incubated at room temperature.” left out
as §3

[2] = cisplatin 2 mg/kg, day 2, 9, IP
[3] = doxorubicin 2 mg/kg, day 2, 9, IV

| EC50 (T-47D) | EC50 (H1299) | SMILES | other results |
| --- | --- | --- | --- |
| 1.42 µM | 3.75 µM | COc1cc(C2C(C#N)=C(N)Oc3c2ccc(NC(=O)[C@H](N)CCCCN)c3N)cc(Br)c1OC (stereo partly shown) [G] | – |
| 4.12 µM | 5.67 µM | COc1cc(C2C(C#N)=C(N)Oc3c2ccc(NC(=O)C(N)COC(C)=O)c3N)cc(Br)c1OC (stereo not shown) [F] | – |
| – | – | N.N.[Cl][Pt][Cl] [Cisplatin, reference compound] | Median survival [1, 2]: 27 days; Number of tumor free mice at day 91 [1, 2]: 1 of 7; Median survival ([1]; cisplatin 2 mg/kg, day 2, IP): 11 days; Number of tumor free mice at day 91 ([1]; cisplatin 2 mg/kg, day 2, IP): 0 of 9 |
| – | – | COc1cccc2c1C(=O)c1c(O)c3c(c(O)c1C2=O)C[C@@](O)(C(=O)CO)C[C@@H]3O[C@H]1C[C@H](N)[C@H](O)[C@H](C)O1 [Doxorubicin, reference compound] | Median survival [1, 3]: 11 days; Number of tumor free mice at day 91 [1, 3]: 0 of 9 |
| 0.16 µM | 0.273 µM | COc1cc(C2C(C#N)=C(N)Oc3c2ccc(NC(=O)CN)c3N)cc(Br)c1OC (stereo not shown) [C] | – |
| 5.5 µM | 5.78 µM | COc1cc(C2C(C#N)=C(N)Oc3c2ccc(NC(=O)CCCN)c3N)cc(Br)c1OC (stereo not shown) [B] | – |
| 3.9 µM | 5.33 µM | COc1cc(C2C(C#N)=C(N)Oc3c2ccc(NC(=O)C2CCCN2)c3N)cc(Br)c1OC (stereo not shown) [Compound E] | – |
| 0.06 µM | – | COc1cc([C@H]2C(C#N)=C(N)Oc3c2ccc(NC(=O)CN)c3N)cc(Br)c1OC [Compound 6, 2-Amino-N—((R)-2,8-diamino-4-(3-bromo-4,5-dimethoxyphenyl)-3-cyano-4H-chromen-7-yl)acetamide] | – |
| 2.44 µM | – | COc1cc([C@H]2C(C#N)=C(N)Oc3c2ccc(NC(=O)CNC(=O)OCC2c4ccccc4-c4ccccc42)c3N)cc(Br)c1OC [Compound 5, (9H-fluoren-9-yl)methyl((R)-2,8-diamino-4-(3-bromo-4,5-dimethoxyphenyl)-3-cyano-4H-chromen-7-ylcarbamoyl)methylcarbamate] | – |
| > 10 µM | > 10 µM | COc1cc(C2C(C#N)=C(N)Oc3c2ccc(NC(=O)C[N+](C)(C)C)c3N)cc(Br)c1OC (stereo not shown) [D] | – |
| 0.052 µM | – | COc1cc([C@H]2C(C#N)=C(N)Oc3c2ccc(NC(=O)[C@H](C)N)c3N)cc(Br)c1OC [Compound 4, (2S)-2-Amino-N—((R)-2,8-diamino-4-(3-bromo-4,5-dimethoxyphenyl)-3-cyano-4H-chromen-7-yl)propanamide] | Caspase cascade activator and inducer of apoptosis (in words) (solid tumor cells): potent caspase cascade activator and inducer of apoptosis |

| SMILES | EC50 (T-47D) | EC50 (H1299) | other results |
| --- | --- | --- | --- |
| COc1cc(C2C(C#N)=C(N)Oc3c2ccc(NC(=O)CN(C)C)c3N)cc(Br)c1OC (stereo not shown) [A] | 2.54 µM | 3.34 µM | – |
| COc1cc([C@H]2C(C#N)=C(N)Oc3c2ccc(NC(=O)[C@H](C)NC(=O)OCC2c4ccccc4-c4ccccc42)c3N)cc(Br)c1OC [Compound 3, (9H-fluoren-9-yl)methyl(S)-1-((R)-2,8-diamino-3-cyano-4-(3-bromo-4,5-dimethoxyphenyl)-4H-chromen-7-ylcarbamoyl)ethylcarbamate] | 2.88 µM | – | – |
| COc1cc(C2C(C#N)=C(N)Oc3c2ccc(N)c3N)cc(Br)c1OC (racemic) [Compound 1, 2,7,8-Triamino-4-(3-bromo-4,5-dimethoxy-phenyl)-3-cyano-4H-chromene] | 0.042 µM | 0.12 µM | EC50 (ZR-75-1): 0.035 µM; EC50 (DLD-1): 0.078 µM |
| COc1cc([C@@H]2C(C#N)=C(N)Oc3c2ccc(N)c3N)cc(Br)c1OC [Compound 1S, S(+)-2,7,8-triamino-4-(3-bromo-4,5-dimethoxy-phenyl)-3-cyano-4H-chromene] | 2.49 µM | 3.21 µM | EC50 (ZR-75-1): 2.01 µM; EC50 (DLD-1): 4.57 µM; Caspase cascade activator and inducer of apoptosis (in words) (solid tumor cells): inactive isomer |
